Source: patent US20240343733A1, “COMPOUNDS FOR TARGETING DEGRADATION OF IRAK4 PROTEINS” (BIOGEN MA INC., priority 2021, published 2024)

What follows are compounds tested against T1, IRAK4 (Homo sapiens, UniProt Q9NWZ3) (assay: IRAK4 Degradation Assay, HiBiT Method). Conditions: 293T cells expressing HiBiT-tagged IRAK4, 6 hours.
T1 construct: 293Tcells expressing HiBiT-tagged IRAK4 were then added into 384-well plates
T1 sequence (Q9NWZ3 1-460): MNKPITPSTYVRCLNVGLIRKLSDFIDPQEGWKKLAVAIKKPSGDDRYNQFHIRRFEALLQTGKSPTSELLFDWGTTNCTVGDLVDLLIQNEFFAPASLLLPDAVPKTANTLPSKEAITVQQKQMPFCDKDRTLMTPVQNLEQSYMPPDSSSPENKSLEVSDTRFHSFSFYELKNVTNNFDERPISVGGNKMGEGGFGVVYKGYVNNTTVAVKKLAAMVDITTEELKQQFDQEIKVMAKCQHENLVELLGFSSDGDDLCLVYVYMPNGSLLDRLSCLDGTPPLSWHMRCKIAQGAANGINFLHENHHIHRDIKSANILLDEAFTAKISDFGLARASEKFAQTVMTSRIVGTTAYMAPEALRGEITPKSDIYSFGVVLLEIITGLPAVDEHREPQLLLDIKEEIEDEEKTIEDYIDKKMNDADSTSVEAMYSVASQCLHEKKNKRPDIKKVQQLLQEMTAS
Assay type: cell-based
Protocol: Assay 1. IRAK4 Degradation Assay, HiBiT Method
Selected compounds were tested in an IRAK4 degradation assay using the HiBiT Method.
Phenol red-free Dulbecco's modified Eagle medium (DMEM) and fetal bovine serum (FBS) were purchased from Gibco (Grand Island, NY, USA). The Nano-Glo® HiBiT Lytic Assay System was purchased from Promega (Madison, WI, USA). Cell culture flasks and 384-well microplates were acquired from VWR (Radnor, PA, USA). The 293Tcell line was engineered by knocking-in a HiBiT fusion tag into the C-terminal of the IRAK4 gene in 293T cells (Synthego, Redwood City, CA, USA).
IRAK4 degradation was measured via the quantification of luminescent signals using the Nano-Glo® HiBiT Lytic Assay kit. Test compounds were added to 384-well plates in duplicate using an 11-point half-log dilution series, with the highest dose set at […]. 293Tcells expressing HiBiT-tagged IRAK4 were then added into 384-well plates at a cell density of 10,000 cells per well. The plates were kept at 37° C. with 5% CO2 for 6 hours. Cells that were treated only with DMSO served as the negative control; wells that contained only assay media served as the background control. After the 6-hour incubation, Nano-Glo® HiBiT Lytic Assay reagents were added to the cells. Luminescence was acquired using an EnVision™ Multilabel Reader (PerkinElmer, Santa Clara, CA, USA).

First: CC(C)Oc1cc2nc([C@H]3CC[C@H](CN4CC5(CCN(c6ncc(N7CCC(=O)NC7=O)cc6F)CC5)C4)CC3)cn2cc1C(=O)Nc1cccn([C@H]2C[C@H]2F)c1=O [Example 179, 2-((1r,4S)-4-((7-(5-(2,4-dioxotetrahydropyrimidin-1(2H)-yl)-3-fluoropyridin-2-yl)-2,7-diazaspiro[3.5]nonan-2-yl)methyl)cyclohexyl)-N-(1-((1S,2R)-2-fluorocyclopropyl)-2-oxo-1,2-dihydropyridin-3-yl)-7-isopropoxyimidazo[1,2-a]pyridine-6-carboxamide]
Second: CC(C)Oc1cc2nc([C@H]3CC[C@H](CN4CCC(c5cc6c(cc5F)c(N5CCC(=O)NC5=O)nn6C)C(F)(F)C4)CC3)cn2cc1C(=O)Nc1cccn([C@H]2C[C@H]2F)c1=O (stereo partly shown) [Example 172, 2-((1r, 4S)-4-((4-(3-(2,4-dioxotetrahydropyrimidin-1 (2H)-yl)-5-fluoro-1-methyl-1H-indazol-6-yl)-3,3-difluoropiperidin-1-yl)methyl)cyclohexyl)-N-(1-((1 S, 2R)-2-fluorocyclopropyl)-2-oxo-1,2-dihydropyridin-3-yl)-7-isopropoxyimidazo[1,2-a]pyridine-6-carboxamide]
The DC50 of the first is lower: under 10 nM for the first, 10 to 100 nM for the second.

`CC(C)Oc1cc2nc(C3CCN(C(=O)CN4CCC(c5cc(F)c(C6CCC(=O)NC6=O)cc5F)CC4)CC3)cn2cc1C(=O)Nc1cnn2cccnc12` (stereo not shown) [Example 77, 2-[1-[2-[4-[4-(2,6-dioxo-3-piperidyl)-2,5-difluoro-phenyl]-1-piperidyl]acetyl]-4-piperidyl]-7-isopropoxy-N-pyrazolo[1,5-a]pyrimidin-3-yl-imidazo[1,2-a]pyridine-6-carboxamide] and `CC(C)Oc1cc2nc(C3CCN(C(=O)CN4CCC(c5cc(F)c(C6CCC(=O)NC6=O)cc5F)CC4)CC3)cn2cc1C(=O)Nc1cccc(C(F)F)n1` (stereo not shown) [Example 76, N-[6-(difluoromethyl)-2-pyridyl]-2-[1-[2-[4-[4-(2,6-dioxo-3-piperidyl)-2,5-difluoro-phenyl]-1-piperidyl]acetyl]-4-piperidyl]-7-isopropoxy-imidazo[1,2-a]pyridine-6-carboxamide] fall in the same range of DC50: 10 to 100 nM for the first, 10 to 100 nM for the second.

First: CC(C)Oc1cc2nc([C@H]3CC[C@H](CN4CCC(c5cccc6c5n(C)c(=O)n6C5CCC(=O)NC5=O)CC4)CC3)cn2cc1C(=O)Nc1cccc(C(F)(F)F)n1 (stereo partly shown) [Example 3, 2-[4-[[4-[1-(2,6-dioxo-3-piperidyl)-3-methyl-2-oxo-benzimidazol-4-yl]-1-piperidyl]methyl]cyclohexyl]-7-isopropoxy-N-[6-(trifluoromethyl)-2-pyridyl]imidazo[1,2-a]pyridine-6-carboxamide]
Second: CC(C)Oc1cc2nc([C@H]3CC[C@H](CN4CCC(c5cccc6c5n(C)c(=O)n6C5CCC(=O)NC5=O)CC4)CC3)cn2cc1C(=O)Nc1cccc(C(F)F)n1 (stereo partly shown) [Example 17, N-[6-(difluoromethyl)-2-pyridyl]-2-[4-[[4-[1-(2,6-dioxo-3-piperidyl)-3-methyl-2-oxo-benzimidazol-4-yl]-1-piperidyl]methyl]cyclohexyl]-7-isopropoxy-imidazo[1,2-a]pyridine-6-carboxamide]
The DC50 of the first is higher: 100 to 500 nM for the first, 10 to 100 nM for the second.

`CC(C)Oc1cc2nc([C@H]3CC[C@H](CN(C)C4CCN(c5cccc(C6CCC(=O)NC6=O)c5)CC4)CC3)cn2cc1C(=O)Nc1cccc(C(F)F)n1` (stereo partly shown) [Example 28, N-[6-(difluoromethyl)-2-pyridyl]-2-[4-[[[1-[3-(2,6-dioxo-3-piperidyl)phenyl]-4-piperidyl]-methyl-amino]methyl]cyclohexyl]-7-isopropoxy-imidazo[1,2-a]pyridine-6-carboxamide] and `CC(C)Oc1cc2nc([C@H]3CC[C@H](CN(C)C4CCN(c5cccc6c5n(C)c(=O)n6C5CCC(=O)NC5=O)CC4)CC3)cn2cc1C(=O)Nc1cccc(C(F)F)n1` (stereo partly shown) [Example 21, N-[6-(difluoromethyl)-2-pyridyl]-2-[4-[[[1-[1-(2,6-dioxo-3-piperidyl)-3-methyl-2-oxo-benzimidazol-4-yl]-4-piperidyl]-methyl-amino]methyl]cyclohexyl]-7-isopropoxy-imidazo[1,2-a]pyridine-6-carboxamide] fall in the same range of DC50: 10 to 100 nM for the first, 10 to 100 nM for the second.

First: CC(C)Oc1cc2nc(C3CCN(C(=O)CN4CCC(c5cnc(NC6CCC(=O)NC6=O)nc5)CC4)CC3)cn2cc1C(=O)Nc1cccc(C(F)F)n1 (stereo not shown) [Example 85, N-[6-(difluoromethyl)-2-pyridyl]-2-[1-[2-[4-[2-[(2,6-dioxo-3-piperidyl)amino]pyrimidin-5-yl]-1-piperidyl]acetyl]-4-piperidyl]-7-isopropoxy-imidazo[1,2-a]pyridine-6-carboxamide]
Second: CC(C)Oc1cc2nc([C@H]3CC[C@H](CN4CCC(c5ccc(C6(F)CCC(=O)NC6=O)cc5)CC4)CC3)cn2cc1C(=O)Nc1cccc(C(F)F)n1 (stereo partly shown) [Example 45, N-[6-(difluoromethyl)-2-pyridyl]-2-[4-[[4-[4-(3-fluoro-2,6-dioxo-3-piperidyl)phenyl]-1-piperidyl]methyl]cyclohexyl]-7-isopropoxy-imidazo[1,2-a]pyridine-6-carboxamide]
The DC50 of the first is lower: 10 to 100 nM for the first, 100 to 500 nM for the second.

`CC(C)Oc1cc2nn([C@H]3CC[C@H](CN4CC[C@H](c5ccc6c(N7CCC(=O)NC7=O)nn(C)c6c5)[C@H](O)C4)CC3)cc2cc1C(=O)Nc1cccn(C2C[C@H]2F)c1=O` (stereo partly drawn) [Example 116, 2-((1S,4S)-4-(((3S,4R)-4-(3-(2,4-dioxotetrahydropyrimidin-1(2H)-yl)-1-methyl-1H-indazol-6-yl)-3-hydroxypiperidin-1-yl)methyl)cyclohexyl)-N-(1-((1S,2R)-2-fluorocyclopropyl)-2-oxo-1,2-dihydropyridin-3-yl)-6-isopropoxy-2H-indazole-5-carboxamide] and `CC(C)Oc1cc2nn([C@H]3CC[C@H](CN4CC[C@@H](c5ccc6c(N7CCC(=O)NC7=O)nn(C)c6c5)[C@H](O)C4)CC3)cc2cc1C(=O)Nc1cccn([C@H]2C[C@H]2F)c1=O` [Example 132, 2-((1S,4S)-4-(((3S,4S)-4-(3-(2,4-dioxotetrahydropyrimidin-1(2H)-yl)-1-methyl-1H-indazol-6-yl)-3-hydroxypiperidin-1-yl)methyl)cyclohexyl)-N-(1-((1S,2R)-2-fluorocyclopropyl)-2-oxo-1,2-dihydropyridin-3-yl)-6-isopropoxy-2H-indazole-5-carboxamide] cannot be ordered by DC50: under 10 nM for the first, under 10 nM for the second.

First: CC(C)Oc1cc2nc([C@H]3CC[C@H](CN4CCC(c5cc6c(cc5F)c(N5CCC(=O)NC5=O)nn6C)C(F)(F)C4)CC3)cn2cc1C(=O)Nc1cccc(C(F)F)n1 (stereo partly shown) [Example 33, N-[6-(difluoromethyl)-2-pyridyl]-2-[4-[[4-[3-(2,4-dioxohexahydropyrimidin-1-yl)-5-fluoro-1-methyl-indazol-6-yl]-3,3-difluoro-1-piperidyl]methyl]cyclohexyl]-7-isopropoxy-imidazo[1,2-a]pyridine-6-carboxamide]
Second: CC(C)Oc1cc2nc([C@H]3CC[C@H](CN4CCC(c5ccc6c(c5)oc(=O)n6C5CCC(=O)NC5=O)CC4)CC3)cn2cc1C(=O)Nc1cccn([C@H]2C[C@H]2F)c1=O (stereo partly drawn) [Example 175, 2-((1r,4S)-4-((4-(3-(2,6-dioxopiperidin-3-yl)-2-oxo-2,3-dihydrobenzo[d]oxazol-6-yl)piperidin-1-yl)methyl)cyclohexyl)-N-(1-((1S,2R)-2-fluorocyclopropyl)-2-oxo-1,2-dihydropyridin-3-yl)-7-isopropoxyimidazo[1,2-a]pyridine-6-carboxamide]
The DC50 of the first is higher: 100 to 500 nM for the first, under 10 nM for the second.

`CC(C)Oc1cc2nn([C@H]3CC[C@H](CN[C@@H]4CC[C@H](c5ccc6c(N7CCC(=O)NC7=O)nn(C)c6c5)[C@H](O)C4)CC3)cc2cc1C(=O)Nc1cccn([C@H]2C[C@H]2F)c1=O` [Example 138, 2-((1R,4S)-4-((((1R,3R,4R)-4-(3-(2,4-dioxotetrahydropyrimidin-1(2H)-yl)-1-methyl-1H-indazol-6-yl)-3-hydroxycyclohexyl)amino)methyl)cyclohexyl)-N-(1-((1S,2R)-2-fluorocyclopropyl)-2-oxo-1,2-dihydropyridin-3-yl)-6-isopropoxy-2H-indazole-5-carboxamide] and `CC(C)Oc1cc2nc(C3CCN(C(=O)CC4CCN(c5ccc(C6CCC(=O)NC6=O)cn5)CC4)CC3)cn2cc1C(=O)Nc1cccn([C@H]2C[C@H]2F)c1=O` (stereo partly drawn) [Example 160, 2-(1-(2-(1-(5-(2,6-dioxopiperidin-3-yl)pyridin-2-yl)piperidin-4-yl)acetyl)piperidin-4-yl)-N-(1-((1S,2R)-2-fluorocyclopropyl)-2-oxo-1,2-dihydropyridin-3-yl)-7-isopropoxyimidazo[1,2-a]pyridine-6-carboxamide] cannot be ordered by DC50: under 10 nM for the first, under 10 nM for the second.
